Data taken from ChEMBL document CHEMBL5052840, “Pharmaceutical compounds and therapeutic methods” (2020).
Activity calls are given as the source filed them. No cut-off for these calls is given here.

Tests used:
[1] = Brain concentration in male C57BL/6 mouse at 10 mg/kg, ip administered as single dose measured at 0.35 hrs measured by LC/MS-MS analysis; format: ADME, organism-based; details: read-out: Drug uptake
[2] = Ratio of drug level in male C57BL/6 mouse brain to plasma at 10 mg/kg, iv administered as single dose measured at 3 hrs measured by LC/MS-MS analysis; format: ADME, organism-based; details: read-out: BPR
[3] = Ratio of drug level in male C57BL/6 mouse brain to plasma at 10 mg/kg, po administered as single dose measured at 0.08 hrs measured by LC/MS-MS analysis; format: ADME, organism-based; details: read-out: BPR
[4] = Plasma concentration in male C57BL/6 mouse at 10 mg/kg, iv administered as single dose measured at 0.08 hrs measured by LC/MS-MS analysis; format: ADME, organism-based
[5] = Plasma concentration in male C57BL/6 mouse at 10 mg/kg, iv administered as single dose measured at 0.35 hrs measured by LC/MS-MS analysis; format: ADME, organism-based
[6] = Plasma concentration in male C57BL/6 mouse at 10 mg/kg, po administered as single dose measured at 3 hrs measured by LC/MS-MS analysis; format: ADME, organism-based
[7] = Plasma concentration in male C57BL/6 mouse at 10 mg/kg, ip administered as single dose measured at 1 hr measured by LC/MS-MS analysis; format: ADME, organism-based
[8] = biological target: T1, Polycomb complex protein BMI-1 (Homo sapiens) (UniProt P35226); assay: Inhibition of BMI1 in human Glioblastoma cell 3D spheres at 7 to 10 nM assessed as reduction in BMI1 protein levels measured by Western blotting method; format: cell-based; details: Glioblastoma cell line, dose 7-10 nM
T1 sequence (whole entry): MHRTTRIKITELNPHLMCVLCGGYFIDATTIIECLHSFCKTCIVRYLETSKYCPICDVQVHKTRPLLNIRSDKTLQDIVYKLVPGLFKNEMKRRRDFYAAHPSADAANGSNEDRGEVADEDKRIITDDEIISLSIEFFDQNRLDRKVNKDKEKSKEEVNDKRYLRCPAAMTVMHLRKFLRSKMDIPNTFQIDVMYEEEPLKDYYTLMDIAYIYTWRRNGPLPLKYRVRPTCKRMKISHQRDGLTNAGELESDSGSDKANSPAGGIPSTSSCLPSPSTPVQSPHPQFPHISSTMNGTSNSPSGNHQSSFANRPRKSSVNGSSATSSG

[9] = Plasma concentration in male C57BL/6 mouse at 10 mg/kg, po administered as single dose measured at 0.08 hrs measured by LC/MS-MS analysis; format: ADME, organism-based
[10] = Ratio of drug level in male C57BL/6 mouse brain to plasma at 10 mg/kg, ip administered as single dose measured at 0.08 hrs measured by LC/MS-MS analysis; format: ADME, organism-based; details: read-out: BPR
[11] = Ratio of drug level in male C57BL/6 mouse brain to plasma at 10 mg/kg, iv administered as single dose measured at 0.08 hrs measured by LC/MS-MS analysis; format: ADME, organism-based; details: read-out: BPR
[12] = Plasma concentration in male C57BL/6 mouse at 10 mg/kg, ip administered as single dose measured at 3 hrs measured by LC/MS-MS analysis; format: ADME, organism-based
[13] = Ratio of drug level in male C57BL/6 mouse brain to plasma at 10 mg/kg, ip administered as single dose measured at 0.35 hrs measured by LC/MS-MS analysis; format: ADME, organism-based; details: read-out: BPR
[14] = Brain concentration in male C57BL/6 mouse at 10 mg/kg, ip administered as single dose measured at 6 hrs measured by LC/MS-MS analysis; format: ADME, organism-based; details: read-out: Drug uptake
[15] = Brain concentration in male C57BL/6 mouse at 10 mg/kg, po administered as single dose measured at 3 hrs measured by LC/MS-MS analysis; format: ADME, organism-based; details: read-out: Drug uptake
[16] = Plasma concentration in male C57BL/6 mouse at 10 mg/kg, po administered as single dose measured at 1 hr measured by LC/MS-MS analysis; format: ADME, organism-based
[17] = Plasma concentration in male C57BL/6 mouse at 10 mg/kg, po administered as single dose measured at 6 hrs measured by LC/MS-MS analysis; format: ADME, organism-based
[18] = Brain concentration in male C57BL/6 mouse at 10 mg/kg, ip administered as single dose measured at 1 hr measured by LC/MS-MS analysis; format: ADME, organism-based; details: read-out: Drug uptake
[19] = Plasma concentration in male C57BL/6 mouse at 10 mg/kg, iv administered as single dose measured at 1 hr measured by LC/MS-MS analysis; format: ADME, organism-based
[20] = Plasma concentration in male C57BL/6 mouse at 10 mg/kg, po administered as single dose measured at 0.35 hrs measured by LC/MS-MS analysis; format: ADME, organism-based
[21] = Brain concentration in male C57BL/6 mouse at 10 mg/kg, ip administered as single dose measured at 0.08 hrs measured by LC/MS-MS analysis; format: ADME, organism-based; details: read-out: Drug uptake
[22] = biological target: T1, Polycomb complex protein BMI-1 (Homo sapiens); assay: Inhibition of BMI1 in human Glioblastoma cell 3D spheres at 7 to 10 nM assessed as reduction in phospho-RB levels measured by Western blotting method; format: cell-based; details: Glioblastoma cell line, dose 7-10 nM
[23] = Brain concentration in male C57BL/6 mouse at 10 mg/kg, ip administered as single dose measured at 12 hrs measured by LC/MS-MS analysis; format: ADME, organism-based; details: read-out: Drug uptake
[24] = Ratio of drug level in male C57BL/6 mouse brain to plasma at 10 mg/kg, iv administered as single dose measured at 1 hr measured by LC/MS-MS analysis; format: ADME, organism-based; details: read-out: BPR
[25] = Ratio of drug level in male C57BL/6 mouse brain to plasma at 10 mg/kg, iv administered as single dose measured at 0.35 hrs measured by LC/MS-MS analysis; format: ADME, organism-based; details: read-out: BPR
[26] = Brain concentration in male C57BL/6 mouse at 10 mg/kg, iv administered as single dose measured at 3 hrs measured by LC/MS-MS analysis; format: ADME, organism-based; details: read-out: Drug uptake
[27] = Ratio of drug level in male C57BL/6 mouse brain to plasma at 10 mg/kg, po administered as single dose measured at 3 hrs measured by LC/MS-MS analysis; format: ADME, organism-based; details: read-out: BPR
[28] = Brain concentration in male C57BL/6 mouse at 10 mg/kg, ip administered as single dose measured at 24 hrs measured by LC/MS-MS analysis; format: ADME, organism-based; details: read-out: Drug uptake
[29] = Brain concentration in male C57BL/6 mouse at 10 mg/kg, ip administered as single dose measured at 3 hrs measured by LC/MS-MS analysis; format: ADME, organism-based; details: read-out: Drug uptake
[30] = Brain concentration in male C57BL/6 mouse at 10 mg/kg, iv administered as single dose measured at 1 hr measured by LC/MS-MS analysis; format: ADME, organism-based; details: read-out: Drug uptake
[31] = Brain concentration in male C57BL/6 mouse at 10 mg/kg, po administered as single dose measured at 6 hrs measured by LC/MS-MS analysis; format: ADME, organism-based; details: read-out: Drug uptake
[32] = Plasma concentration in male C57BL/6 mouse at 10 mg/kg, iv administered as single dose measured at 3 hrs measured by LC/MS-MS analysis; format: ADME, organism-based
[33] = Ratio of drug level in male C57BL/6 mouse brain to plasma at 10 mg/kg, iv administered as single dose measured at 6 hrs measured by LC/MS-MS analysis; format: ADME, organism-based; details: read-out: BPR

Cc1nc2ccccn2c1-c1csc(Nc2ccc3c(c2)OC(F)(F)O3)n1.Cl
concentration at 0.35 h [1]: 680 ng/g
Kp at 3 h [2]: 1.73
Kp at 0.08 h [3]: 0.78
concentration at 0.08 h [4]: 1580 ng/mL
concentration at 0.35 h [5]: 535 ng/mL
concentration at 3 h [6]: 3.35 ng/mL
concentration at 1 h [7]: 79.1 ng/mL
inhibition [8]: Active
concentration at 0.08 h [9]: 175 ng/mL
Kp at 0.08 h [10]: 1.05
Kp at 0.08 h [11]: 1.07
concentration at 3 h [12]: 1.43 ng/mL
Kp at 0.35 h [13]: 0.96
concentration at 6 h [14]: 680 ng/g
concentration at 3 h [15]: 5.78 ng/g
concentration at 1 h [16]: 29.3 ng/mL
concentration at 6 h [17]: 2.5 ng/mL
concentration at 1 h [18]: 159 ng/g
concentration at 1 h [19]: 80.7 ng/mL
concentration at 0.35 h [20]: 138 ng/mL
concentration at 0.08 h [21]: 558 ng/g
inhibition [22]: Active
concentration at 12 h [23]: 159 ng/g
Kp at 1 h [24]: 1.67
Kp at 0.35 h [25]: 1.83
concentration at 3 h [26]: 9.01 ng/g
Kp at 3 h [27]: 4.34
concentration at 24 h [28]: 6.21 ng/g
concentration at 3 h [29]: 558 ng/g
concentration at 1 h [30]: 225 ng/g
concentration at 6 h [31]: 4.52 ng/g
concentration at 3 h [32]: 5.64 ng/mL
Kp at 6 h [33]: 1.81
